Results on 18 molecules are retold here after patent publication US10710951B2, “Pharmaceutical composition containing verbenone derivative for treating or preventing neurodegenerative disease” (KOREA UNIVERSITY RESEARCH AND BUSINESS FOUNDATION, priority 2012, dated 2020).

Series [1] is described as follows: Oxygen radical absorbance capacity (ORAC) assay. Further details: ORAC assay TE25 (trolox equivalents): dose or concentration left out as unconfirmed. Particulars: for ORAC assay TE25 (trolox equivalents): net AUC sample / net AUC trolox. As for the experimental part: An ORAC assay was performed as disclosed in the literature (Huang, D. et al., J. Agric. Food Chem., 53, 1841-56, 2005).
AAPH (60 mM) and fluorescein (50 nM) were prepared in buffer (75 mM phosphate buffer, pH7.4) without a sample or a sample or a standard (Trolox). Each of the samples and the standard was suspended in a solution of 7% RMCD (randomly methylated beta-cyclodextrin) in 50% acetone. RMCD was used to increase the solubility of oil-soluble samples. Each sample was sufficiently mixed with fluorescein solution (66 nM, 190 μl) by shaking for 5 seconds. After incubation at 37° C. for 10 minutes, AAPH (500 mM, 30 μl) was quickly added to each sample, and a decrease in the fluorescence was measured using a fluorescence microplate reader (Ex=485 nm, Em=530 nm; SpectraMax GeminiEM, Molecular Devices, Sunnyvale, Calif.) at 37° C. at 5-min intervals for 9 hours. To quantify the activity of scavenging peroxyl radicals, AUC (area-under-the-curve) was calculated according to the following equation 2, and net AUC was calculated according to the following equation 3, and the TE (trolox equivalents) of each sample was calculated according to the following equation 4 based on a standard curve of net AUC plotted according to an increase in trolox concentration. AUC=(0.5+f1/f0+f2/f0+f3/f0+ . . . +fn−2/f0+fn−1/f0+fn/f0)×5, Equation 2
wherein f0 is the first fluorescence at 0 min and time I. Net AUC=AUCsample−AUCblank. Equation 3 TE(trolox equivalents) of each sample=[netAUCsample […]]/[net AUCtrolox […]]. Equation 4
(§1) The antioxidant activities of the verbenone derivatives of the present invention were measured by the following two different chemical reactions: (1) a single electron transfer-based assay that is a […] [DPPH] assay that measures a decrease in DPPH acting as a free radical generator and a termination probe; and (2) a hydrogen atom transfer assay that is an oxygen radical absorbance capacity [[…]] assay that measures the competitive reaction kinetics of a peroxyl radical generator (AAPH; 2,2′-azobis-(2-methylpropionamide)-dihydrochloride) and each sample acting as an antioxidant for oxidizable fluorescent probe (fluorescein).

Series [2] can be described thus: DPPH assay (ability to scavenge nitrogen radicals). Further details: DPPH assay % inhibition: concentration or dose not given beside the values. The conditions noted are these: relative to vitamin C (Equation 1). As to the method: The samples were mixed with DPPH (23.6 μg/ml, in ethanol), and incubated in dark at 37° C. for 30 minutes. The DPPH absorbance reduced by each sample was measured at 517 nm. Vitamin C (Sigma-Aldrich, St. Louis, Mo.) was used as a control, and the DPPH inhibition value (%) was calculated using the following equation: Scavenging activity (%)=[Absmax(Vit.C)−Abssample]/[Absmax(Vit.C)−Absmin(Vit.C)]×100. Equation 1
as §1
Background: DPPH is a stable violet radical that fades when it is reduced.

Series [3] relates to cortical neurons. Briefly: NMDA-induced excitotoxicity, LDH release. Details: dose or concentration left out as unconfirmed. In kind it is cell-based, SD rats. The conditions noted are these: cultured cortical neuronal cells; sample 30 min before NMDA; lower than MK-801; FIG. 2. As to the method: (§2) Cortical neurons (5×10^5 cells/ml) were isolated from fetal SD rats (16-17 days). Specifically, brain cortex was cut, and cells were isolated from the tissue by repeated trituration using a Pasteur pipette in buffer (Hanks' Balanced Salt Solution, HBSS). The cell suspension (1.8×10^3 cells/mm^2) was dispensed on a plate pretreated with poly-D-lysine ([…])/laminin ([…]). The cells were placed in 10% FBS-containing NBM medium, and incubated in a […]/5% CO2 atmosphere at 37° C. After 15-16 days of the incubation, the experiment was performed.
After incubation on the plate for 15-18 days, the cortical neurons were exposed to NMDA ([…]) in a solution (Mg^2+-free Earle's balanced salt solution (EBSS); containing 1.8 mM CaCl2 and 10 mM glycine) for 10 minutes. After exposure, the cells were washed with MgSO4-containing EBSS solution, and incubated in 25 mmol/L glucose-containing DMEM medium in a 5% CO2 incubator at 37° C. 30 Minutes before treatment with NMDA, the cells were treated with each sample […].
(§3) In order to measure cell injury or cell death, the amount of LDH released into the medium was measured using a cell viability measurement kit (Sigma-Aldrich, St. Louis, Mo.). Cell viability was expressed as the percentage of LDH relative to the total cellular LDH level measured in sister cultures lysed by freezing-thawing after the experiment.
A general note: Release of lactate dehydrogenase indicates damage to the cell membrane.

In series [4] the test system is cortical neurons. Description: Oxygen-glucose deprivation (OGD)/reoxygenation neuronal injury, LDH release. Format: cell-based. The conditions noted are these: rat cortical neurons, FIG. 1. As to the method: as §2
In order to induce hypoxic-ischemic symptoms in vitro, the incubated cells were placed in an anoxic chamber (partial oxygen pressure <2 mmHg). The cells were incubated glucose-free DMEM while being bubbled with an anaerobic gas mixture (95% N2 and 5% CO2) for 30 minutes to remove residual oxygen, and were incubated at 37° C. for 90 minutes for oxygen deprivation. After 90 minutes, the exposed solution was replaced with 25 mmol/L glucose-containing DMEM medium to stop the OGD reaction, and the cells were restored to normal oxygen conditions. Control cells not exposed to OGD were incubated in glucose (25 mmol/L)-containing DMEM medium provided with an aerobic gas mixture (95% air and 5% CO2). The cells were treated with each sample 30 minutes before, and during the entire period of OGD/re-oxygenation.
as §3

Consider `COc1ccc(C=CC2=CC(=O)[C@H]3C[C@@H]2C3(C)C)cc1OC` [Compound 4f, (1S,5R)-4-(3,4-dimethoxystyryl)-6,6-dimethylbicyclo[3.1.1]hept-3-en-2-one], for which, in series [1], the “ORAC assay Net AUC” value was 39.35 ± 1.67 and the “ORAC assay TE25 (trolox equivalents)” value is listed as 0.88 ± 0.04.
With `COc1ccc(C=CC2=CC(=O)[C@H]3C[C@@H]2C3(C)C)c(O)c1` [Compound 3i, (1S,5R)-4-(2-hydroxy-4-methoxystyryl)-6,6-dimethylbicyclo[3.1.1]hept-3-en-2-one], the “DPPH assay % inhibition” value in series [2] is listed as 51.21 ± 3.83%. In addition, in series [1], the “ORAC assay Net AUC” value came out at 136.87 ± 3.24 and the “ORAC assay TE25 (trolox equivalents)” value came to 3.05 ± 0.07. Besides, the NMDA-induced neuronal injury result in the series on cortical neurons [3] is given as “significantly reduced NMDA-induced neuronal injury”.
For `CC1(C)[C@@H]2C[C@H]1C(C=Cc1ccc(-c3ccccc3)cc1)=CC2=O` [Compound 4d, (1S,5R)-4-(2-(biphenyl-4-yl)vinyl)-6,6-dimethylbicyclo[3.1.1]hept-3-en-2-one], in series [1], the “ORAC assay Net AUC” value is 26.75 ± 1.27 and the “ORAC assay TE25 (trolox equivalents)” value is on record as 0.56 ± 0.01.
The corresponding values for `COc1cc(C=CC2=CC(=O)[C@H]3C[C@@H]2C3(C)C)cc(OC)c1` [Compound 4g, (1S,5R)-4-(3,5-dimethoxystyryl)-6,6-dimethylbicyclo[3.1.1]hept-3-en-2-one] are 45.28 ± 0.62 and 1.01 ± 0.01.
For the molecule `CC1(C)[C@@H]2C[C@H]1C(/C=C/c1ccccn1)=CC2=O` [Compound 5a, (1S,5R)-6,6-dimethyl-4-((E)-2-(pyridin-2-yl)vinyl)bicyclo[3.1.1]hept-3-en-2-one], in series [1], the “ORAC assay Net AUC” value worked out at 23.51 ± 0.79 and the “ORAC assay TE25 (trolox equivalents)” value is 0.52 ± 0.02. Also, the NMDA-induced neuronal injury result in the series with cortical neurons [3] is listed as “significantly reduced NMDA-induced neuronal injury”.
Regarding `CC1(C)[C@@H]2C[C@H]1C(/C=C/c1cccnc1)=CC2=O` [Compound 5b, (1S,5R)-6,6-dimethyl-4-((E)-2-(pyridin-3-yl)vinyl)bicyclo[3.1.1]hept-3-en-2-one], in series [1], the “ORAC assay Net AUC” value came to 22.93 ± 0.61 and the “ORAC assay TE25 (trolox equivalents)” value turned out to be 0.51 ± 0.01.
On to `COc1cc(O)cc(OC)c1C=CC1=CC(=O)[C@H]2C[C@@H]1C2(C)C` [Compound 3e, (1S,5R)-4-(4-hydroxy-2,6-dimethoxystyryl)-6,6-dimethylbicyclo[3.1.1]hept-3-en-2-one], for which, in series [2], the “DPPH assay % inhibition” value was 55.80 ± 7.52%. For the same molecule, in series [1], the “ORAC assay Net AUC” value is given as 166.26 ± 6.05 and the “ORAC assay TE25 (trolox equivalents)” value is 3.70 ± 0.13.
Take `CC1(C)[C@@H]2C[C@H]1C(C=Cc1ccc(F)cc1)=CC2=O` [Compound 4b, (1S,5R)-4-(4-fluorostyryl)-6,6-dimethylbicyclo[3.1.1]hept-3-en-2-one]: in series [1], the “ORAC assay Net AUC” value amounted to 26.15 ± 1.26 and the “ORAC assay TE25 (trolox equivalents)” value is reported as 0.62 ± 0.02.
The corresponding values for `CC1(C)[C@@H]2C[C@H]1C(C=Cc1ccccc1)=CC2=O` [Compound 4a, (1S,5R)-6,6-dimethyl-4-styrylbicyclo[3.1.1]hept-3-en-2-one] are 27.73 ± 0.74 and 0.61 ± 0.01.
In the case of `COc1cc(O)ccc1C=CC1=CC(=O)[C@H]2C[C@@H]1C2(C)C` [Compound 3b, (1S,5R)-4-(4-hydroxy-2-methoxystyryl)-6,6-dimethylbicyclo[3.1.1]hept-3-en-2-one], the “DPPH assay % inhibition” value in series [2] turned out to be 38.13 ± 5.62%. In addition, in series [1], the “ORAC assay Net AUC” value came out at 106.48 ± 1.89 and the “ORAC assay TE25 (trolox equivalents)” value is listed as 2.37 ± 0.04.
Take `COc1ccc(C=CC2=CC(=O)[C@H]3C[C@@H]2C3(C)C)cc1` [Compound 4c, (1S,5R)-4-(4-methoxystyryl)-6,6-dimethylbicyclo[3.1.1]hept-3-en-2-one]: in series [1], the “ORAC assay Net AUC” value is on record as 38.06 ± 2.00 and the “ORAC assay TE25 (trolox equivalents)” value is 0.79 ± 0.01.
`CC1(C)[C@@H]2C[C@H]1C(C=Cc1ccc(O)c(Br)c1)=CC2=O` [Compound 3d, (1S,5R)-4-(3-bromo-4-hydroxystyryl)-6,6-dimethylbicyclo[3.1.1]hept-3-en-2-one]: in series [2], the “DPPH assay % inhibition” value was 29.45 ± 2.41%. In series [1], the “ORAC assay Net AUC” value was 168.12 ± 5.24 and the “ORAC assay TE25 (trolox equivalents)” value is on record as 3.74 ± 0.12.
In the same order, the values of `CC1(C)[C@@H]2C[C@H]1C(C=Cc1ccccc1O)=CC2=O` [Compound 3h, (1S,5R)-4-(2-hydroxystyryl)-6,6-dimethylbicyclo[3.1.1]hept-3-en-2-one] are 4.64 ± 0.60%, 98.77 ± 2.53 and 2.20 ± 0.06.
In the case of `COc1ccc(OC)c(C=CC2=CC(=O)[C@H]3C[C@@H]2C3(C)C)c1` [Compound 4h, (1S,5R)-4-(2,5-dimethoxystyryl)-6,6-dimethylbicyclo[3.1.1]hept-3-en-2-one], in series [1], the “ORAC assay Net AUC” value is given as 32.44 ± 1.54 and the “ORAC assay TE25 (trolox equivalents)” value is 0.72 ± 0.03.
The corresponding values for `CC1(C)[C@@H]2C[C@H]1C(/C=C/c1ccncc1)=CC2=O` [Compound 5c] are 22.51 ± 0.34 and 0.50 ± 0.01.
The corresponding values for `CC1(C)[C@@H]2C[C@H]1C(C=Cc1cccc(O)c1)=CC2=O` [Compound 3g, (1S,5R)-4-(3-hydroxystyryl)-6,6-dimethylbicyclo[3.1.1]hept-3-en-2-one] are 73.74 ± 3.86 and 1.64 ± 0.09.
With `CC1(C)[C@@H]2C[C@H]1C(C=Cc1ccc(O)cc1)=CC2=O` [Compound 3a, (1S,5R)-4-(4-hydroxystyryl)-6,6-dimethylbicyclo[3.1.1]hept-3-en-2-one], the “DPPH assay % inhibition” value in series [2] is recorded as 19.11 ± 0.67%. In addition, in the series on cortical neurons [4] (OGD/reoxygenation, comparable to MK801), the “neuronal injury induced by OGD (LDH release)” value is “significantly reduced neuronal injury”. Also, the cytotoxicity entry with cortical neurons [4] is on record as “showed no cytotoxicity”. For the same molecule, in series [1], the “ORAC assay Net AUC” value is on record as 153.98 ± 1.68 and the “ORAC assay TE25 (trolox equivalents)” value came out at 3.43 ± 0.04. Moreover, the NMDA-induced neuronal injury entry in the series with cortical neurons [3] is on record as “significantly reduced NMDA-induced neuronal injury”.
For `COc1ccc(Br)cc1C=CC1=CC(=O)[C@H]2C[C@@H]1C2(C)C` [Compound 4i, (1S,5R)-4-(5-bromo-2-methoxystyryl)-6,6-dimethylbicyclo[3.1.1]hept-3-en-2-one], in series [1], the “ORAC assay Net AUC” value is recorded as 32.96 ± 1.03 and the “ORAC assay TE25 (trolox equivalents)” value is recorded as 0.73 ± 0.02.
